For data set [1], the system named is GAG-deficient CHO-pgsA745 cells (GAG^neg). As for the experimental part:
(§1) As already reported, the quantity or concentration of internalized and membrane-bound penetratin could be differentiated and measured by MALDI mass spectrometry, [33], [34]. […] Using the reported protocol, the amount of internalized penetratin was quantified in one million cells that were incubated with 1 or 10 µM penetratin for one hour. After washing steps, the extracellular membrane-bound peptide was degraded by trypsin digestion, [33], [34] so that only the internalized peptide was quantified. […] The extracellular concentration could not be lowered further because of the lack of sensitivity of the MALDI-MS method for accurate measurements of sub-picomole quantities of penetratin.
(§2) Wild type Chinese Hamster Ovary CHO-K1 cells (WT), xylosetransferase- or GAG-deficient CHO-pgsA745 [59] cells (GAG^neg) and sialic acid deficient CHO-lec2 [60] cells (SA^neg) were cultured in Dulbecco's modified Eagle's medium (DMEM) supplemented with 10% fetal calf serum (FCS), penicillin (100,000 IU/L), streptomycin (100,000 IU/L), and amphotericin B (1 mg/L) in a humidified atmosphere containing 5% CO2 at 37°C.
(§3) Cellular uptake was quantified using the method described by Burlina et al.. In this protocol, the studied peptide bears a tag composed of four glycine residues together with a biotin moiety for purification purposes. After one-hour incubation with the peptide and washing, a protease is added (0.05% trypsin in Tris-HCl 100 mM pH 7.5) in order to detach the cells and to degrade the membrane-bound peptide. This avoids overestimating the quantity of internalized peptide due to the presence of peptides attached to the outer leaflet of the membrane. The cells are then lysed (0.3% Triton) and boiled, and the cell lysate is incubated with streptavidin-coated magnetic beads to extract the peptide from the lysate. For membrane-bound peptide quantification, washings but no protease digestion was done and the cells were directly lysed. The peptides are eluted from the streptavidin-coated magnetic beads with a α-cyano-4-hydroxycinnamic acid matrix and spotted on the MALDI plate. Mass spectrometry is not a quantitative method per se, therefore an internal standard is added to the lysis solution. […] This allows the absolute quantification of internalized and membrane-bound peptide. […] The experiments were repeated at least three times independently.

For data set [2], the system named is sialic acid deficient CHO-lec2 cells (SA^neg). As for the experimental part:
as §1, §2, §3

Data set [3] deals with Wild type Chinese Hamster Ovary CHO-K1 cells (WT). As for the experimental part: as §1, §2, §3
Data set [4] has as its system GAG^neg cell membrane fragments. Put plainly: PWR, lipid bilayer composed of cell membrane fragments. Format: binding, Chinese Hamster. The settings on record: GAG^neg membrane fragments in egg PC planar bilayer; PWR shifts on incremental peptide addition, hyperbolic fit, apparent Kd; repeated 3 times. The text has this:
(§4) Homogenized membranes were obtained by osmotic and mechanical disruption of cells. A method to deposit cell membrane fragments on the PWR cell sample was developed as follows. The deposition of a membrane composed of cell membrane fragments into the PWR resonator led to spectral changes, namely large positive spectral shifts for both p- and s-polarizations relative to the buffer spectrum (Figure 2, panels A and B) indicating the immobilization of a significant amount of mass on the sensor surface. It should be noted that the shifts obtained for p-pol were considerably larger than the ones obtained for s-pol (s/p ratio about 0.7).
(§5) Regarding the direction of the PWR spectral shifts, two types of behavior were observed depending on the membrane composition: 1) in the case of GAG^neg cells, penetratin led to a two phase binding process with negative shifts followed by positive shifts (for both polarizations) which equilibrated after certain concentrations; 2) in the case of WT and SA^neg cells, penetratin led to a single binding process with positive shifts for both polarizations (see panels C and D in Figure 2 for penetratin interaction with WT cell membranes and Table 1 for the direction and magnitude of the spectral shifts). […] Penetratin affinity to lipid bilayers and membrane fragments could be calculated using PWR by measuring the resonance minimum position shifts upon incremental addition of peptide to the cell sample [39]. […]
(§6) The kinetics of penetratin interaction with the membrane was determined by following the shift in the resonance minimum position as a function of time for a peptide concentration slightly above the Kd value. […] Rate constants were determined for the second part of the signal (the resonance angle increase) and varied upon membrane composition (Figure 2 and Table 3). […]
(§7) The sensitivity factor (Sf), a measure of the sensitivity of the instrument for the s- pol relative to p-pol ( [drawing 2] ), necessary to determine the mass and anisotropy axes has been determined, for the prism used in those experiments, to be 1.35 [46].

The subject of data set [5] is WT cell membrane fragments. The description is as above. The class given is binding, Chinese Hamster. Particulars: WT membrane fragments in egg PC planar bilayer; PWR shifts on incremental peptide addition, hyperbolic fit, apparent Kd; repeated 3 times.
From the text: as §4, §5, §6, §7

The test system of data set [6] is SA^neg cell membrane fragments. Described as above. The class given is binding, Chinese Hamster. Particulars: SA^neg membrane fragments in egg PC planar bilayer; PWR shifts on incremental peptide addition, hyperbolic fit, apparent Kd; repeated 3 times.
From the text: as §4, §5, §6, §7

The nature of data set [7]: PWR, synthetic lipid model membrane. The class given is binding. Particulars: hyperbolic fit, apparent Kd, repeated 3 times.
From the text: To get some insight into the role of the lipid component in the cell surface regarding penetratin interaction, lipid model systems composed of varied lipid composition were used. Both zwitterionic (egg PC), anionic (egg PG -phosphatidylglycerol-and egg PC/DOPG -phosphatidylglycerol/dioleoylphosphatidylglycerol-) and lipids with propensity to form negative membrane curvature (egg PC/DOPE -dioleoylphosphatidylethanolamine-) were chosen in order to understand the role of electrostatic interactions and membrane curvature in the interaction of penetratin with the lipid bilayer. For all the lipid systems, penetratin interaction led to spectral shifts in both the p- and s-polarisation. As in the case of cell membrane fragments studies, presented above, two distinct responses were observed depending on the membrane composition: 1) in the case of egg PC and egg PC/DOPE, a two phase binding process with negative shifts followed by positive shifts (for both polarizations) which equilibrated after certain concentrations were observed; 2) in the case of egg PG, egg PC/POPG (1-palmitoyl-2-oleoyl-sn-glycero-3-phospho-(1′-rac-glycerol)), penetratin led to a single binding process with positive shifts for both polarizations (see Table 1 for the direction and magnitude of the spectral shifts). […] The electrostatic interaction played an important role in penetratin interaction with the membrane, but was not the only relevant factor, the shape of the lipid headgroup and/or the lipid curvature seemed to also play a key role in (this will be further discussed below).
For the membrane interaction where two binding processes were observed, as in the case of egg PC, egg PC/DOPE, the first binding was associated with negative spectral shifts for both p- and s-polarizations, which corresponded mainly to mass changes (90–100%). […] In the case where only one binding event was observed (egg PG and egg PC/DOPG) mass changes again dominated the spectral changes (85 to 91%) (Table 5).
Here, the graphical analysis method was employed.
as §7

Where [8] appears, read: 1 µM extracellular biotin-Gly4-tagged penetratin, one million cells, 1 h incubation, washings, trypsin degradation of membrane-bound peptide, MALDI-TOF MS with deuterated internal standard, repeated at least three times.
[9] abbreviates: 1 µM extracellular, 1 h, from internalized amount provided a cell volume of 1 pL.

For the substance “H-RQIKIWFQNRRMKWKK-NH2 [penetratin, Penetratin, positively charged cell-penetrating peptide derived from the third helix of the homeodomain of Antennapedia]”, the internalized peptide quantity result in data set [1] (setting [8]), in data set [2] (setting [8]) and in data set [3] (setting [8]) was “about 0.25 pmole” in each case. The intracellular penetratin concentration entry in data set [1] (setting [9]), in data set [2] (setting [9]) and in data set [3] (setting [9]) was “about 0.25 µM” in each case. In addition, the Kd in data set [4] worked out at 2000 ± 600 nM; in data set [5], 10 ± 3 nM; in data set [6] it was 300 ± 40 nM; in data set [7] (Egg PC bilayer) it was 28000 ± 2000 nM; in data set [7] (Egg PC/DOPE bilayer) it was 500 ± 10 nM; in data set [7] (Egg PC/DOPG bilayer) it was 1400 ± 30 nM. The Kd in data set [7] (Egg PG bilayer) amounted to 300 ± 20 nM.

These data come from publication PMC3167814, “Relationships between Membrane Binding, Affinity and Cell Internalization Efficacy of a Cell-Penetrating Peptide: Penetratin as a Case Study” (PLoS ONE, 2011).
